Our source for the apoptosis under monotherapy and colony formation values is patent US7423015B1, “Antihelminthic drugs as a treatment for hyperproliferative diseases” (Board of Regents, The University of Texas System, priority 2001, dated 2008).

SMILES strings stand for the structures.

One test relates to H460 NSCLC cells. The test can be described thus: Cell cycle profiles by FACS, MZ and vinorelbine. The class given is cell-based, human. To be noted: sub-therapeutic low dose. As to the method:
FIG. 10. MZ Enhances activity of anti-mictotic drugs in H460 NSCLC cells. H460 cells were treated with low dose of MZ or Vinorelbine. Cell cycle profiles indicating G1/S G2-Mphases were analyzed by FACS.
The doses of MZ and vinorelbine were chosen to be “sub-therapeutic”. […] Thus, in H460 NSCLC cells mebendazole enhances the activity of anti-mitotic drugs.

Test [1] deals with A549 metastatic lung colonies. The test can be described thus: Lung metastases in vivo after tail vein injection. On the set-up: species or system female nude mice. As to conditions: paclitaxel alone, other experiments. The method, then:
To establish lung metastases, female nude mice were injected intravenously via tail vein with 10^6 A549 tumor cells suspended in […] of sterile PBS. Six days later, mice were divided into two groups of 5 mice each and treated. Group 1 received no treatment and group 2 received the experimental MZ drug orally at 1 mg of drug (100 μl) twice a week for 3 weeks. After 3 weeks, animals were euthanized by CO2 inhalation. Lungs from each of the mice from the two groups were injected intra-tracheally with India ink and fixed in Feketes solution. The therapeutic effect of MZ treatment was determined by counting the number of metastatic tumors in each lung under a dissecting microscope without knowledge of the treatment groups. The experiments were performed three times and data analyzed and interpreted as statistically significant if the p value was <0.05 by the Mann-Whitney rank-sum test.
Next, the inventors asked whether treatment with MZ would inhibit the growth of human metastatic lung cancer cells in vivo. About 300 metastatic colonies appeared on untreated mice 21 days after A549 cell injection into the tail vein (FIG. 6). This technique was reproducible as the totals blindly counted by two investigators differed by less than 10%. This experiment was performed three times with similar results. The oral administration of […] MZ reduced mean colony count to 80% of the mean value for controls (P<0.0001).

For `CCC1=C[C@@H]2CN(C1)Cc1c([nH]c3ccccc13)[C@@](C(=O)OC)(c1cc3c(cc1OC)N(C)[C@H]1[C@@](O)(C(=O)OC)[C@H](OC(C)=O)[C@]4(CC)C=CCN5CC[C@]31[C@@H]54)C2` [Vinorelbine], the apoptosis under monotherapy result in the test with H460 NSCLC cells was “No apoptosis”. For `CC(=O)O[C@H]1C(=O)[C@@]2(C)[C@H]([C@H](OC(=O)c3ccccc3)[C@]3(O)C[C@H](OC(=O)[C@H](O)[C@@H](NC(=O)c4ccccc4)c4ccccc4)C(C)=C1C3(C)C)[C@]1(OC(C)=O)CO[C@@H]1C[C@@H]2O` [paclitaxel], the colony formation result in test [1] is given as “no significant reduction”.
